In PMC5641083, “Blockage of FOXP3 transcription factor dimerization and FOXP3/AML1 interaction inhibits T regulatory cell activity: sequence optimization of a peptide inhibitor” (Oncotarget, 2017):

Legend:
[1] = target: T1, FOXP3/FOXP3 homodimerization (GST-FOXP3 and FOXP3-His) (Homo sapiens, UniProt Q9BZS1); experiment: AlphaScreen FOXP3 homodimerization assay; format: biochemical; conditions: GST-FOXP3 40 nM, FOXP3-His 300 nM
T1 construct: made in house; host or cells: E. coli
T1 sequence (Q9BZS1 1-421): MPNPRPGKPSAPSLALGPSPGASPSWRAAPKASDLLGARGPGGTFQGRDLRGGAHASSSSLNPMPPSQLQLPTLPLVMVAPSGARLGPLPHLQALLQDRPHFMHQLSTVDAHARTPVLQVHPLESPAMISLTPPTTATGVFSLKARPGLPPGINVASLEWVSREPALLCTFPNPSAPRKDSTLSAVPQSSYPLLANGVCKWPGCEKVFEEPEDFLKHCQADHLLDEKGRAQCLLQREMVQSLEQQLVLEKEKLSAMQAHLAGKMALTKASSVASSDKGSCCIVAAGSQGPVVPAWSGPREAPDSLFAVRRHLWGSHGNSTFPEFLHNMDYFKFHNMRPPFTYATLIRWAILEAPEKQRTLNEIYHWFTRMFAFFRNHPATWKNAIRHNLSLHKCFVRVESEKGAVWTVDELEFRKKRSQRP
Text: (§1) AML1 is required for IL-2 and IFN-γ gene expression in conventional CD4+ T cells and its interaction with FOXP3 is needed for the immunosuppressive activity of Tregs. On the other hand, it has been described that the leucine zipper region is necessary and sufficient to mediate FOXP3 homo-dimerization, which is required for its function as a transcriptional regulator [13, 15, 20]. Thus, since P60 binds to this FOXP3 intermediate region, we analyzed if it could act as a decoy molecule to inhibit FOXP3 homodimerization or the FOXP3-AML1 heterodimerization. The capacity of FOXP3 to homodimerize was measured using the […] assay platform AlphaScreen™ (Perkin Elmer). Previous protein-cross titration experiment using different concentrations of FOXP3-6His (from 1000 to 0 nM) and GST-FOXP3 (from 300 to 0 nM) allowed us to define the optimal protein concentrations to analyze FOXP3 homodimerization (Figure 2A). […] We also tested if GST tagged FOXP3 was able to interact with AML1 protein tagged with 6 His at the N-terminus. As shown in the cross titration experiments in Figure 2C, a specific FOXP3-AML1 heterodimerization was visualized as an increase in the AlphaScreen signal.
(§2) FOXP3/AML1 heterodimerization, as well as FOXP3/FOXP3 homodimerization were analyzed by Alphascreen technology according to the manufacturer's instructions (Perkin Elmer, Benelux) as previously described.

FOXP3/AML1 interaction = target: T2, FOXP3/AML1 interaction (Homo sapiens, UniProt Q9BZS1); experiment: AlphaScreen FOXP3/AML1 heterodimerization assay; format: biochemical
T2 sequence (Q9BZS1 1-431): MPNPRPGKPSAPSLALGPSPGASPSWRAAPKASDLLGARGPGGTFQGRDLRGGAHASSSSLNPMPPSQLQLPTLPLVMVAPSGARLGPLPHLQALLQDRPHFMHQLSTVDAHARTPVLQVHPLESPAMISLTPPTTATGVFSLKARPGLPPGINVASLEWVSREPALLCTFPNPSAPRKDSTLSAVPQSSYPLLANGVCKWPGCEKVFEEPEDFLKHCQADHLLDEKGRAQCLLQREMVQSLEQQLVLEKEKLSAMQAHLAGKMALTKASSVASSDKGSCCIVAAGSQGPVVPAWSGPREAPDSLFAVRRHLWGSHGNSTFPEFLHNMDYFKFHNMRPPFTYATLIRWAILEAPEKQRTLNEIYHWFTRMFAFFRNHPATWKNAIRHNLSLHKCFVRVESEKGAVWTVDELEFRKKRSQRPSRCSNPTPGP
Text: as §1, §2

murine Treg cells = format: cell-based, BALB/c mice
Text: Results shown in Figures 1–3 correspond to cell-free assays where peptides can interact directly with its corresponding protein partner. However, FOXP3 binding peptides need to enter into the cell in order to inhibit FOXP3 functions. Once we identified some mutants with higher capacity to bind FOXP3, we studied their capacity to inhibit the suppressor activity of natural Tregs in vitro. Thus, we activated effector T cells with anti-CD3 monoclonal antibody in the presence of Tregs, and analyzed the capacity of each peptide to restore T cell proliferation inhibited by Treg cells. […] Indeed, when results from the point-variant screening are represented as a heat map, it is clear that introduction of an alanine at positions 2, 5 and 11 improved activity of the original P60, whereas alanine mutations at positions 1, 7, 8, 9, 10 and 12 are detrimental (Figure 4C).
Isolation of murine CD4^+CD25^+, and CD4^+CD25^− T-cells was performed from murine spleen cells by using murine regulatory T-cell isolation kit (Miltenyi Biotec, Bergisch Gladbach, Germany) according to manufacturer's instructions. The purity of the resulting T-cell populations was confirmed to be > 95% by flow cytometry.
Inhibition of murine T regulatory cell function was measured in an in vitro assay of T-cell stimulation. CD25+ depleted spleen cells (10^5 cells/well) from BALB/c mice were stimulated in vitro with 2, 5 μg/ml of anti-mouse CD3 antibody (Pharmingen) in the presence/absence of purified Treg cells (10^4 cells/well). T-cell proliferation was measured 3 days later as previously described.

Treg cells = experiment: Treg pre-treated with peptide, then Treg suppression assay; format: cell-based; conditions: Treg incubated with peptide at 20 μM for 24 hours, washed
Text: FOXP3 is critical for the development and function of Tregs, but also, FOXP3 can be transiently expressed in effector T cells after TCR stimulation leading to hyporesponsiveness of the effector T cell. […] We speculate that the Foxp3 inhibitory peptides may work at two levels: (i) reducing Treg function and (ii) releasing the brake of FOXP3 transient expression on effector T cells. Thus, we studied the effect of CM-1315 in T cell proliferation and IL-2 and IFN-γ production in effector T cells in response to anti-CD3 stimulation. The original P60, the optimized peptide CM-1315 and a control peptide were tested. […] We also studied the effect of the peptides directly in Tregs. Thus, freshly isolated Treg cells were pre-treated with the peptides for 24 h, and after extensive washing, they were used in conventional Treg suppression assay in coculture with effector T cells and anti-CD3 stimulation.
Supplementary Figure 4: Effect of Foxp3 inhibitory peptides in effector T cells alone. […] T cell proliferation (A) and IL-2 and IFN-γ (B and C) production in response to anti-CD3 stimulation was measured by 3H-thymidine incorporation and by ELISA respectively.
Supplementary Figure 5: Effect of FOXP3 inhibitory peptides in Treg cells. […] T cell proliferation was measured by 3H-thymidine incorporation assay. […]

CT26 tumor cells = conditions: AH1 in IFA, P60 50 nanomol/mice/day i.p. day 0 to day 9, 5 × 10^5 cells; cited from earlier work

IC50 (murine Treg cells): 38.3 µM
Substance: H-RDFQSFRKMWPFFAM-OH [P60]
Inhibition of FOXP3 homodimerization (in words) [1]: able to impair FOXP3 dimerization in a dose dependent manner
Inhibition of FOXP3-AML1 heterodimerization (in words) (FOXP3/AML1 interaction): able to reduce the signal in a dose dependent manner
Inhibition of suppressive activity of pre-treated Treg (in words) (Treg cells): not able to inhibit significantly Treg cells, although some reversal of suppression was observed
Protection against CT26 tumor challenge (in words) (CT26 tumor cells): protected mice from CT26 tumor challenge
